Where a name gives a salt, the structure may show the parent alone.
Molecular target: T1, human recombinant ENPP1 enzymes (Homo sapiens, UniProt P22413)
T1 construct: purchased R & D systems
T1 sequence (P22413 1-925): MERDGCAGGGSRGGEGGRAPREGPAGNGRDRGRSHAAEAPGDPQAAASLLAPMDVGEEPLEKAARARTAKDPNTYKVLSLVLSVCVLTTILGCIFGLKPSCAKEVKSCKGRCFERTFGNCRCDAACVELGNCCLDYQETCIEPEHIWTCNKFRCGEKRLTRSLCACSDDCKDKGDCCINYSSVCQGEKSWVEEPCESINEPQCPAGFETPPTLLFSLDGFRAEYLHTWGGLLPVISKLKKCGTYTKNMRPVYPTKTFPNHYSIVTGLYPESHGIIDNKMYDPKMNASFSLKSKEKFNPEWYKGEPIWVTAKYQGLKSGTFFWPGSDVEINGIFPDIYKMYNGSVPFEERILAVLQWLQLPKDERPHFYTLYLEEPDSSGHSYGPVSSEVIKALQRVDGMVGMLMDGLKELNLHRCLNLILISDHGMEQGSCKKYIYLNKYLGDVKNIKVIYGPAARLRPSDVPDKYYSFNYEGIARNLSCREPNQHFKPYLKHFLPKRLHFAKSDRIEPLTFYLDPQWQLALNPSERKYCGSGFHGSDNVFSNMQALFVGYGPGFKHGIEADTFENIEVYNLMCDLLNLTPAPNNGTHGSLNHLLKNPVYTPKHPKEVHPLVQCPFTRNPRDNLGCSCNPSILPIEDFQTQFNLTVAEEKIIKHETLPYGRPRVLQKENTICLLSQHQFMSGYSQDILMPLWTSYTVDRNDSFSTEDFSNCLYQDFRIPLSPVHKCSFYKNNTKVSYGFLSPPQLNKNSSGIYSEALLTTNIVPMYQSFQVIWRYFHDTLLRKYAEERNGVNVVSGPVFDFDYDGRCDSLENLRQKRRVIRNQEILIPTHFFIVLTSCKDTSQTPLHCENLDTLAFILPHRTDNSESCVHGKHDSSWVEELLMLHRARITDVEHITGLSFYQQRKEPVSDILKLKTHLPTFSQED
Experiment: ENPP1 Enzyme Assay with cGAMP Substrate (AMP-Glo)
Type: biochemical
Settings: human recombinant ENPP1, cGAMP 5 μM, 37° C. 90 minutes, AMP-Glo luminescence; read-out: Enzymatic activity (IC50)
Method: ENPP1 hydrolyzes nucleotides or nucleotide derivatives to produce nucleoside-5′-monophosphate and pyrophosphate. In addition, ENPP1 hydrolyzes 2′,3′-cGAMP to produce 5′-adenosine monophosphate (AMP) and 5′-guanosine monophosphate (GMP). AMP produced from the reaction is measured using the AMP-Glo® kit (Promega). The AMP-Glo® kit contains two reagents. The first reagent terminates the AMP-producing enzymatic reaction, removes ATP and converts the produced AMP into ADP. The second reagent converts ADP into ATP which is used to generate luminescence in the luciferase reaction. The amount of luminescence measured is proportional to the amount of AMP produced by ENPP1.
The final reaction solution contains 50 mM Tris (pH 8.5) buffer, 250 mM NaCl, 0.5 mM CaCl2), 1 μM ZnCl2, 5% glycerol and 1% DMSO. Serially diluted ENPP1 inhibitors (typically in the range of 10 μM to 0.5 nM) were pre-stored with human recombinant ENPP1 enzymes (R & D systems) at 3 ng/reaction and room temperature (RT) for 5 to 10 minutes. The reaction was initiated by addition of cGAMP (at a final concentration of 5 μM) and reacted at 37° C. for 90 minutes. At the end of the reaction, 10 μl of the AMP-Glo first reagent was added to stop the reaction and the result was stored at room temperature for 1 hour. After storage, 20 μl of an AMP detection solution (a mixture of AMP-Glo II reagent and Kinase-Glo at a ratio of 1:100) was added and stored at room temperature for 1 hour. Luminescence signals were measured using a Victor® plate reader (Perkin Elmer). The maximal activity control (containing enzymes and substrates in the presence of 1% DMSO; MAX) and the minimal activity control (containing substrates and 1% DMSO; MIN) were evaluated simultaneously. In each experiment, serially diluted reference ENPP1 inhibitors were tested as well. IC50, indicating % residual activity versus compound concentration was determined by fitting inhibition curves using the 3-parameter analysis of GraphPad Prism® software. Serially diluted samples of one compound were tested two or more times and an average IC50 of each compound was calculated.

IC50 [nM] | SMILES
> 10000 | COc1ccc2c(c1)nnn2-c1ccc(CNS(N)(=O)=O)s1 [Example 106, N-((5-(5-methoxy-1H-benzo[d][1,2,3]triazol-1-yl)thiophen-2-yl)methyl)sulfamide]
> 10000 | COc1cccc2nnn(-c3ccc(CNS(N)(=O)=O)cc3)c12 [Example 53, N-(4-(7-methoxy-1H-benzo[d][1,2,3]triazol-1-yl)benzyl)sulfamide]
< 1000 | COc1ccc2c(c1)nnn2-c1ccc(CN(C)S(N)(=O)=O)cc1 [Example 80]
1000 to 10000 | COc1ccc2c(c1)nnn2Cc1ccc(NS(N)(=O)=O)cc1 [Example 104, N-(4-((5-methoxy-1H-benzo[d][1,2,3]triazol-1-yl)methyl)phenyl)sulfamide Hydrochloride]
< 1000 | COc1ccc2c(c1)nnn2C1CCC(CNS(N)(=O)=O)CC1 (stereo not drawn) [Example 43, N-((4-(5-methoxy-1H-benzo[d][1,2,3]triazol-1-yl)cyclohexyl)methyl)sulfamide]
> 10000 | COc1ccc2c(c1)nnn2-c1ccc(CNS(=O)(=O)c2ccc(C)cc2)cc1F [Example 114, N-(3-fluoro-4-(5-methoxy-1H-benzo[d][1,2,3]triazol-1-yl)benzyl)-4-methylbenzenesulfonamide]
< 1000 | NS(=O)(=O)NCc1ccc(-n2nnc3ccccc32)c(F)c1 [Example 56, N-(4-(1H-benzo[d][1,2,3]triazol-1-yl)-3-fluorobenzyl)sulfamide]
< 1000 | COc1cc2nnn(-c3ccc(CNS(N)(=O)=O)cc3F)c2cc1C [Example 70, N-(3-fluoro-4-(5-methoxy-6-methyl-1H-benzo[d][1,2,3]triazol-1-yl)benzyl)sulfamide]
1000 to 10000 | COc1ccc2c(c1)nnn2-c1cccc(CNS(N)(=O)=O)c1 [Example 49, N-(3-(5-methoxy-1H-benzo[d][1,2,3]triazol-1-yl)benzyl)sulfamide]
< 1000 | NS(=O)(=O)NCc1ccc(-n2nnc3ccccc32)c(F)c1F [Example 57, N-(4-(1H-benzo[d][1,2,3]triazol-1-yl)-2,3-difluorobenzyl)sulfamide]
1000 to 10000 | COc1ccc2c(c1)nnn2CC1CCNCC1 [Example 3, 5-methoxy-1-(piperidin-4-ylmethyl)-1H-benzo[d][1,2,3]triazole]
< 1000 | COc1ccc2c(c1)nnn2-c1ccc(CNS(N)(=O)=O)cc1F [Example 61, N-(4-(5-methoxy-1H-benzo[d][1,2,3]triazol-1-yl)-3-fluorobenzyl)sulfamide]
< 1000 | COc1cc2nnn(-c3ccc(CNS(N)(=O)=O)cc3F)c2cc1OC [Example 71, N-(4-(5,6-dimethoxy-1H-benzo[d][1,2,3]triazol-1-yl)-3-fluorobenzyl)sulfamide]
> 10000 | CNCc1ccc(-n2nnc3cc(OC)ccc32)cc1 [Example 12, 1-(4-(5-methoxy-1H-benzo[d][1,2,3]triazol-1-yl)phenyl)-N-methylmethanamine Hydrochloride]
> 10000 | COc1ccc2c(c1)nnn2-c1ccc2c(c1)CNCC2 [Example 25, 7-(5-methoxy-1H-benzo[d][1,2,3]triazol-1-yl)-1,2,3,4-tetrahydroisoquinoline Hydrochloride]
< 1000 | COc1ccc2c(c1)nnn2-c1ccc2c(c1)CC(NS(N)(=O)=O)C2 (stereo not drawn) [Example 95]
> 10000 | COc1ccc2c(c1)nnn2-c1cc(F)c(CN)cc1F [Example 17]

IC50 [nM] | SMILES
< 1000 | COc1ccc2c(c1)nnn2-c1ccc([C@H](C)NS(N)(=O)=O)cc1 [Example 83, (S)—N-(1-(4-(5-methoxy-1H-benzo[d][1,2,3]triazol-1-yl)phenyl)ethyl)sulfamide]
> 10000 | COc1ccc2c(c1)nnn2-c1ccc(CNS(N)(=O)=O)cn1 [Example 79, (N-(6-(5-methoxy-1H-benzo[d][1,2,3]triazol-1-yl)pyridin-3-yl)methyl)sulfamide]
> 10000 | COc1ccc2c(c1)nnn2C1CCNCC1 [Example 1, 5-methoxy-1-(piperidin-4-yl)-1H-benzo[d][1,2,3]triazole Hydrochloride]
> 10000 | COc1ccc2c(c1)nnn2-c1ccc(CNS(C)(=O)=O)cc1F [Example 112, N-(3-fluoro-4-(5-methoxy-1H-benzo[d][1,2,3]triazol-1-yl)benzyl)methanesulfonamide]
< 1000 | NCc1ccc(-n2nnc3ccccc32)cc1 [Example 5, 4-(1H-benzo[d][1,2,3]triazol-1-yl)phenyl)methanamine Hydrochloride]
> 10000 | COc1ccc2c(c1)nnn2C1CCN(S(N)(=O)=O)CC1 [Example 42, 4-(5-methoxy-1H-benzo[d][1,2,3]triazol-1-yl)piperidine-1-sulfonamide]
< 1000 | COc1cc2nnn(-c3ccc4c(c3)CN(S(N)(=O)=O)C4)c2cc1OC [Example 102, 5-(5,6-dimethoxy-1H-benzo[d][1,2,3]triazol-1-yl)-isoindoline-2-sulfonamide]
< 1000 | NS(=O)(=O)NCc1ccc(-n2nnc3cc(O)ccc32)c(F)c1 [Example 74, N-(3-fluoro-4-(5-hydroxy-1H-benzo[d][1,2,3]triazol-1-yl)benzyl)sulfamide]
< 1000 | COc1ccc2c(c1)nnn2-c1ccc(CNS(N)(=O)=O)cc1 [Example 51, N-(4-(5-methoxy-1H-benzo[d][1,2,3]triazol-1-yl)benzyl)sulfamide Hydrochloride]
< 1000 | NS(=O)(=O)NCc1ccc(-n2nnc3cc(OC(F)F)ccc32)c(F)c1 [Example 91]
< 1000 | COc1cc2nnn(-c3ccc(CNS(N)(=O)=O)cc3)c2cc1OC [Example 55, N-(4-(5,6-dimethoxy-1H-benzo[d][1,2,3]triazol-1-yl)benzyl)sulfamide]
< 1000 | COc1ccc2c(c1)nnn2-c1ccc(CNS(N)(=O)=O)c(F)c1F [Example 65, N-(2,3-difluoro-4-(5-methoxy-1H-benzo[d][1,2,3]triazol-1-yl)-benzyl)sulfamide]
> 10000 | COc1ccc2c(c1)nnn2-c1cc2c(cc1F)CNCC2 [Example 26, 7-fluoro-6-(5-methoxy-1H-benzo[d][1,2,3]triazol-1-yl)-1,2,3,4-tetrahydroisoquinoline Hydrochloride]
> 10000 | NCc1ccc(-n2nnc3cc(OCF)ccc32)c(F)c1 [Example 23]
1000 to 10000 | COc1cc(OC)c2nnn(-c3ccc(CNS(N)(=O)=O)cc3)c2c1 [Example 54, N-(4-(4,6-dimethoxy-1H-benzo[d][1,2,3]triazol-1-yl)benzyl)sulfamide]
> 10000 | COc1cccc2c1nnn2-c1ccc(CN)cc1 [Example 6, 4-(4-methoxy-1H-benzo[d][1,2,3]triazol-1-yl)phenyl)methanamine Hydrochloride]
< 1000 | COc1ccc2c(c1)nnn2-c1ccc(CCNS(N)(=O)=O)cc1 [Example 73, N-(4-(5-methoxy-1H-benzo[d][1,2,3]triazol-1-yl)phenethyl)sulfamide Hydrochloride]

SMILES | IC50 [nM]
COc1ccc2c(c1)nnn2C1CCN(CCS(=O)(=O)F)CC1 [Example 111, 2-(4-(5-methoxy-1H-benzo[d][1,2,3]triazol-1-yl)piperidin-1-yl)ethane-1-sulfonyl Fluoride] | > 10000
COc1ccc2c(c1)nnn2-c1cccc(CCN)c1 [Example 11, 2-(3-(5-methoxy-1H-benzo[d][1,2,3]triazol-1-yl)phenyl)ethan-1-amine Hydrochloride] | > 10000

Source: patent US20240116882A1, “NOVEL BENZOTRIAZOLE DERIVATIVE HAVING INHIBITORY ACTIVITY AGAINST ECTONUCLEOTIDE PYROPHOSPHATASE-PHOSPHODIESTERASE, AND USE THEREOF” (TXINNO BIOSCIENCE INC., priority 2021, published 2024)
